According to PMC6544338, “Comparative biophysical characterization: A screening tool for acetylcholinesterase inhibitors” (PLoS ONE, 2019):
Structures can show the parent of a compound that is named as a salt. Where two headings read alike, the source gives them in different places.

Experiments:
immobilized AChE [1] = target: T1, immobilized AChE (Electrophorus electricus, UniProt O42275); experiment: biochemical; format: binding; conditions: for Ka1 / Kd1 / Kd: 25°C
T1 construct: purchased Sigma (St. Louis, MO, USA)
Procedure: (§1) The protocol was followed with some modifications for enzyme immobilization, scouting and screening. SPR interactions were performed using a Biacore X100 optical biosensor (GE Healthcare Life Sciences, Bangalore, India) at 25°C. SPR analysis was carried out in PBS (200 mM, pH 7.7) from the analyte stock solutions, working solutions were diluted before passing on to the sensor surface. Data collection was done with the help of Biacore control software ver 2.0.2 Sets of experiments were carried out by monitoring change in the refractive index as a function of time under constant flow conditions. The relative amount of inhibitor bound to the AChE was determined by measuring the net increase in the refractive index over time compared to buffer as a control. During each run, there is an inline subtraction of the reference surface. Change is reported regarding response units (RU). The surface was washed with 5 cycles of running buffer (PBS) before next analytes.
(§2) As per pH scouting studies, AChE enzyme (100μg) was dissolved in 100 mM sodium acetate buffer pH 4.5 and was immobilized to the CM5 sensor chip by using the amine coupling method. The flow rate was kept constant during immobilization at 10 μlmin^-1, the surface of flow cell was activated by 1:1 mixture of 100 mM EDC and 100 mM NHS (both dissolved in water) for 7 min. AChE was injected for 7 min, and residual activated carboxymethyl groups were blocked on the sensor surface by 7 min injection of 1M ethanolamine, pH 8.5. In this particular study, flow cell 1 was blank immobilized (without protein) and used as a reference. Inline and double referencing was done for the buffer RU compensation.
(§3) Here the model describes this competitive situation and returns two sets of rate constants, one for each reaction taking into consideration two different analytes. The same buffer was used as running buffer. The constant flow rate was maintained throughout the kinetics (45 μlmin^-1), contact time and dissociation time was kept at 120 second (s). 10 mM glycine pH 3.0 for the time period of 30 s was used for regeneration. The experiments were carried at different concentrations of inhibitors.
(§4) The analysis of data was carried out with X100 evaluation software ver 2.0.2 and fitted to two state fit for individual molecules and for competitive experiments a heterogeneous analyte binding model.

AChE [2] = target: T2, AChE (Electrophorus electricus, UniProt O42275); experiment: Far-UV circular dichroism of AChE with small molecules (secondary structure composition); conditions: for change in secondary structure of AChE compared to control enzyme: CD, far-UV; for Turns of AChE in presence of the molecule / α helix of AChE in presence of the molecule / Random of AChE in presence of the molecule / β sheets of AChE in presence of the molecule: single molecule; for Turns of AChE in presence of the molecule: AChE alone 0; for α helix of AChE in presence of the molecule: AChE alone 3.6±0.012; for Random of AChE in presence of the molecule: AChE alone 44.2±0.46; for β sheets of AChE in presence of the molecule: AChE alone 52.3±0.6
T2 construct: purchased Sigma (St. Louis, MO, USA)
Procedure: Protein solutions 0.5 milligram per milliliter (mgml^-1) was prepared in 10 mM PBS at pH 7.7. Scans were performed at room temperature using 0.1 cm path length quartz cuvette with 8 s differential integration time at a scan rate of 100 nano meter per minute (nm min^-1). The CD spectrum of AChE enzyme individually and with different small molecules, also in combination was recorded. All spectra resulted from averaging three scans were corrected from the buffer blank. Results were expressed as molar ellipticity (°cm^2 dmol^-1) based on a mean amino acid residue weight (MRW) 110 Da for AChE. The molar ellipticity was determined as [θ obs] = {100 × (MRW) × θobs/cl}, where θ is the observed ellipticity in degrees at a given wavelength, c is the protein concentration in mgml^-1, and l is the path length in cm.
The relative percentages of the secondary structure elements were estimated in triplicates using Manager Suite software.

AChE [3] = target: T2, AChE; experiment: Fluorescence spectral studies of AChE incubated with molecules; conditions: excitation 365 nm, control emission maxima […] nm, molecules at IC50 concentration, 10 min
Procedure: The fluorescence intensities were recorded using 0.5 mgml^-1 protein concentration with an excitation wavelength of 365 nm and an emission wavelength of 400–700 nm with slit widths of 20 nm using MY14410002 fluorescence spectrophotometer (Agilent Technologies, USA) at 25°C. Protein solutions of 0.5 mgml^-1 were prepared in 10 mM PBS at pH 7.7. Scans were performed at room temperature using a 1 cm path length quartz cuvette with 1 s differential integration time at a scan rate of 600 nm min^-1. […] The subsequent changes in fluorescence were measured at this wavelength.
Fig 21 a) Intrinsic fluorescence spectra of the AChE incubated with molecules. […] Scans were performed at 37°C using a 1 cm path length quartz cuvette with 1 s differential integration time at a scan rate of 600 nm min^-1. The excitation wavelength was 365 nm and emission wavelength was in the range of 400–700 nm. b) Intrinsic fluorescence spectra of the AChE incubated with molecules. […] Scans were performed at 37° C using a 1 cm path length quartz cuvette with 1 s differential integration time at a scan rate of 600 nm min^-1. The excitation wavelength was 365 nm and the emission wavelength was in the range of 400–700 nm.

[4] = target: T3, acetylcholinesterase from Electrophorus electricus (Electric eel) (Electrophorus electricus, UniProt O42275); experiment: Inhibition assay for acetylcholinesterase activity (modified Ellman, ATCI/DTNB, 412 nm); format: biochemical
T3 construct: purchased Sigma (St. Louis, MO, USA)
Procedure: The assay was performed with some modifications of Ellman et al (1961). […] The hydrolysis was monitored by the formation of yellow color (5-thio-2-nitrobenzoate anion) and the absorbance was measured at 412 nm by using spectrophotometer (UV-1800, Shimadzu, Japan).
The inhibitory activity assay was carried out with slight modifications. […] The inhibitory percentage of AChE was calculated as follows:
%inhibition = 100[A − B] − [C − D]/[A − B]
A is the OD without test substance, B is the OD without test substance and AChE, C is the OD with the test substance, D is the OD at 412 nm with the test substance and without AChE.
The relative percentage inhibition were estimated in triplicates and values were expressed as mean ± SEM (n = 3).

immobilized AChE [5] = target: T1, immobilized AChE; experiment: biochemical; format: binding; conditions: for Kd: read-out: Molecule 2 KD
Procedure: as §1, §2, §3, §4
Likewise, competitive experiments between different pairs was run by mixing 1:1 ratio of molecules and was fit to heterogeneous analyte model were studied. These experiments are helpful for determining the kinetics of a small molecule analyte in competition with other. Response contributions from both analytes are taken into account by considering molecular weight and concentrations of analytes. For competition binding experiments, pairing was done based on substrate-inhibitor and inhibitor-inhibitor interactions. […] Finally, naturally occurring crocin was also tested due to reports in the literature as a brain tonic for the Alzheimer's.

[6] = affinity fit, read-out: KD Affinity
[7] = two-state model, read-out: KD Kinetics
[8] = pair crocin (molecule 1) and ATCI (molecule 2), 1:1
[9] = pair tannic acid (molecule 1) and ATCI (molecule 2), 1:1

T2 sequence (O42275 24-633): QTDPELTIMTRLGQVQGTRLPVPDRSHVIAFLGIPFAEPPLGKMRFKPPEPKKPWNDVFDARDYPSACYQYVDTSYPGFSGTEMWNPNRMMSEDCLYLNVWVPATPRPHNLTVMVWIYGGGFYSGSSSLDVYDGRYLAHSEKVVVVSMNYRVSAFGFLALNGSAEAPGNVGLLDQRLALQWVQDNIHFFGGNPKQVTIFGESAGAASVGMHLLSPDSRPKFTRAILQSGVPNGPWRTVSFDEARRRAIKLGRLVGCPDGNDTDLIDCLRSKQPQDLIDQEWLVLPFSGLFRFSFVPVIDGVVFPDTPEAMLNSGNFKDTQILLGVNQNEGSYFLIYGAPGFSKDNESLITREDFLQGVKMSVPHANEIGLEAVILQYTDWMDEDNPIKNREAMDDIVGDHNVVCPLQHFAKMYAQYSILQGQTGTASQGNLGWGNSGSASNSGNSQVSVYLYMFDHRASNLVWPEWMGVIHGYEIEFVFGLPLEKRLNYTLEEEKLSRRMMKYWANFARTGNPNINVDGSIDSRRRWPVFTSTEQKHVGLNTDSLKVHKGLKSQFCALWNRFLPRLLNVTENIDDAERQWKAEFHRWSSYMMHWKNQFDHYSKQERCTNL
T3 sequence (O42275 24-633): as above
T1 sequence (O42275 24-633): as above

SMILES: O[C@H]1[C@H]2c3cc4c(cc3CN3CCC(=C[C@@H]1O)[C@H]23)OCO4 [Lycorine hydrochloride, lycorine hydrochloride]
- Kd2 (immobilized AChE [1]): 0.02658 ± 0.0061 s⁻¹
- Ka1 (immobilized AChE [1]; two-state model): 131.5 ± 6.3 M⁻¹ s⁻¹
- Kd1 (immobilized AChE [1]; two-state model): 0.3564 ± 0.011 s⁻¹
- change in secondary structure of AChE compared to control enzyme (AChE [2]): increase of α-helix
- Turns of AChE in presence of the molecule (AChE [2]): 0%
- α helix of AChE in presence of the molecule (AChE [2]): 7.2±0.045%
- Random of AChE in presence of the molecule (AChE [2]): 41.6±0.34%
- β sheets of AChE in presence of the molecule (AChE [2]): 51.2±0.72%
- change in fluorescence emission of AChE compared to control enzyme (AChE [3]): increase in the intensity at 415 nm

SMILES: O=c1c(O)c(-c2ccc(O)c(O)c2)oc2cc(O)cc(O)c12 [Quercetin, quercetin]
- Ka2 (immobilized AChE [1]): 0.006822±3.4×10^−4 1/s
- Kd2 (immobilized AChE [1]): 0.004964±2.1×10^−4 1/s
- Ka1 (immobilized AChE [1]; two-state model): 117.6 ± 4.3 M⁻¹ s⁻¹
- Kd1 (immobilized AChE [1]; two-state model): 0.05923 ± 0.0028 s⁻¹
- change in secondary structure of AChE compared to control enzyme (AChE [2]): reduction in α-helix with an increase in β-sheets
- Turns of AChE in presence of the molecule (AChE [2]): 1.0±0.006%
- α helix of AChE in presence of the molecule (AChE [2]): 3.1±0.010%
- Random of AChE in presence of the molecule (AChE [2]): 42.8±0.39%
- β sheets of AChE in presence of the molecule (AChE [2]): 53.2±0.75%
- change in fluorescence emission of AChE compared to control enzyme (AChE [3]): redshift

SMILES: O.Oc1cc(O)c2c(c1)O[C@H](c1ccc(O)c(O)c1)[C@@H](O)C2 [Catechin hydrate, catechin hydrate]
- IC50 ([4]; […] ATCI, PBS 200 mM pH 7.7, 37°C, mean ± SEM (n = 3), read-out: IC50): 90 ± 1 µM
- Ka2 (immobilized AChE [1]): 0.0158±7.1×10^−4 1/s
- Kd2 (immobilized AChE [1]): 0.004173±1.1×10^−4 1/s
- Kd (immobilized AChE [1]; [6]): 738 µM
- Ka1 (immobilized AChE [1]; two-state model): 76.33 ± 3.4 M⁻¹ s⁻¹
- Kd1 (immobilized AChE [1]; two-state model): 0.06336 ± 0.0042 s⁻¹
- Kd (immobilized AChE [1]; [7]): 173 µM
- Turns of AChE in presence of the molecule (AChE [2]): 0%
- α helix of AChE in presence of the molecule (AChE [2]): 10±0.06%
- Random of AChE in presence of the molecule (AChE [2]): 41±0.29%
- β sheets of AChE in presence of the molecule (AChE [2]): 49±0.67%
- change in fluorescence emission of AChE compared to control enzyme (AChE [3]): redshift

SMILES: CC(=O)SCC[N+](C)(C)C.[I-] [ATCI, acetylthiocholine iodide, reference compound]
- Ka2 (immobilized AChE [1]): 12440 ± 9.6e-05 s⁻¹
- Kd (immobilized AChE [1]; [6]): 2510 µM
- Ka1 (immobilized AChE [1]; two-state model): 76590 ± 12000 M⁻¹ s⁻¹
- Kd1 (immobilized AChE [1]; two-state model): 0.4167 ± 0.13 s⁻¹
- Kd (immobilized AChE [1]; [7]): 2.23 µM
- Molecule 2 ka2 (immobilized AChE [5]): 92910 ± 43000 M⁻¹ s⁻¹
- Molecule 2 ka2 (immobilized AChE [5]; [8]): 139500 ± 19000 M⁻¹ s⁻¹
- Molecule 2 kd2 (immobilized AChE [5]; [8]): 0.06452 ± 0.0034 s⁻¹
- Molecule 2 ka2 (immobilized AChE [5]; [9]): 1.529e+06 ± 3.4e+06 M⁻¹ s⁻¹
- Kd (immobilized AChE [5]; [9]): 0.00016 µM
- Kd (immobilized AChE [5]): 0.00989 µM
- change in secondary structure of AChE compared to control enzyme (AChE [2]): increase in α-helix and a decline in β-sheets
- Turns of AChE in presence of the molecule (AChE [2]): 0%
- α helix of AChE in presence of the molecule (AChE [2]): 5.9±0.035%
- Random of AChE in presence of the molecule (AChE [2]): 42.8±0.39%
- β sheets of AChE in presence of the molecule (AChE [2]): 51.3±0.70%
- change in fluorescence emission of AChE compared to control enzyme (AChE [3]): no change

SMILES: Cn1c(=O)c2c(ncn2C)n(C)c1=O [Caffeine, caffeine, reference compound]
- IC50 [4]: 380 ± 15 µM
- Kd (immobilized AChE [1]; KD Affinity, affinity fit): 7700 µM
- Kd (immobilized AChE [1]; KD Kinetics, two-state model): 17.4 µM

SMILES: C[C@@H]1O[C@@H](OC[C@H]2O[C@@H](Oc3c(-c4ccc(O)c(O)c4)oc4cc(O)cc(O)c4c3=O)[C@H](O)[C@@H](O)[C@@H]2O)[C@H](O)[C@H](O)[C@H]1O [Rutin hydrate, rutin hydrate]
- IC50 [4]: 1900 ± 90 µM
- Ka2 (immobilized AChE [1]): 0.004468±1.6×10^−4 1/s
- Kd2 (immobilized AChE [1]): 0.002058±1.6×10^−4 1/s
- Kd (immobilized AChE [1]; [6]): 1110 µM
- Ka1 (immobilized AChE [1]; two-state model): 11.33 ± 0.25 M⁻¹ s⁻¹
- Kd1 (immobilized AChE [1]; two-state model): 0.04254 ± 0.0013 s⁻¹
- Kd (immobilized AChE [1]; [7]): 1180 µM
- Turns of AChE in presence of the molecule (AChE [2]): 0%
- α helix of AChE in presence of the molecule (AChE [2]): 8.8±0.056%
- Random of AChE in presence of the molecule (AChE [2]): 40.7±0.27%
- β sheets of AChE in presence of the molecule (AChE [2]): 50.5±0.72%
- change in fluorescence emission of AChE compared to control enzyme (AChE [3]): redshift
